# Assay results as given in patent publication US9487479B2, “Small molecule inhibitors of N-terminus activation of the androgen receptor” (The University of British Columbia, priority 2008, dated 2016).
# Tests used:
# [1] = target: T1, glucocorticoid receptor (GR) (Homo sapiens, UniProt P04150); test: GRE-luciferase reporter assay in LNCaP cells transfected with hGR; format: cell-based; conditions: 5 μg/ml, dexamethasone 10 nM, 24 h
# T1 construct: Cells were co-transfected with expression plasmids for full-length hGR and PRβ; expressed in transfected cells; host or cells: LNCaP cells
# T1 sequence (P04150 1-777): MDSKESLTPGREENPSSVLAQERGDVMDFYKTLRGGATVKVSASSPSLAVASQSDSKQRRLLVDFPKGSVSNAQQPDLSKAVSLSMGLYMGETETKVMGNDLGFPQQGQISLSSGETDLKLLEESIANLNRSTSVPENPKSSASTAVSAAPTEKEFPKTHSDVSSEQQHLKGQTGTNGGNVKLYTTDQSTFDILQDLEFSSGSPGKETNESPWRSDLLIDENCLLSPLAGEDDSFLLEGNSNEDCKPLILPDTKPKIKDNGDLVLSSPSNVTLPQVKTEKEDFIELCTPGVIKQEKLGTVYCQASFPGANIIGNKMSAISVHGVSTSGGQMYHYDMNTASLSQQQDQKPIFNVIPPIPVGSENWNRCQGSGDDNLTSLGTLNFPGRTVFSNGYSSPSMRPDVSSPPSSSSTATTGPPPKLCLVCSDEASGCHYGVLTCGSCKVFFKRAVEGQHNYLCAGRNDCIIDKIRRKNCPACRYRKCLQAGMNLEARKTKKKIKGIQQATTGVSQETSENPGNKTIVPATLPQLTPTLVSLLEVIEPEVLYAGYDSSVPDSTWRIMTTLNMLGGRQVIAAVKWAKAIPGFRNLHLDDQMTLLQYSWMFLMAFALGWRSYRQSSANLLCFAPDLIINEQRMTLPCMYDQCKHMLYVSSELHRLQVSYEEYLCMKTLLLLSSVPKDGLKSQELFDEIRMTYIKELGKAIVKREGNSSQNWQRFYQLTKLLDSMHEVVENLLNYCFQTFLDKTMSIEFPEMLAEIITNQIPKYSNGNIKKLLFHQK
# Excerpt: White bars represent no steroid (ethanol control). Wherein glucocorticoid receptor (GR) and progesterone receptor (PR).
# Sequence similarities of amino acids in the AR with related human steroid receptors (glucocorticoid receptor (GR) and progesterone receptor (PR)) are significant in some domains such as the DNA-binding-domain (DBD). Although the AR-NTD shares less than 15% homology with the PR and GR, these receptors do interact with some of the same proteins such as SRC-1 (steroid receptor coactivator-1). Therefore, reporter gene assays were used to determine if candidate compounds that block AR activity have any effect on GR and PR transcriptional activity. Cells were co-transfected with expression plasmids for full-length hGR and PRβ and the relative reporter (i.e., pGR-Luc or PRE-E1b-Luc reporters). Cells were then treated with ethanol vehicle, dexamethasone (GR), 4-pregnene-3,20 dione (progesterone) (PR) followed by measurement of luciferase activity.
# LNCaP xenografts = test: LNCaP subcutaneous xenograft model in castrated NOD-SCID mice; format: in vivo; conditions: intratumoral 30 mg/kg every 3 days
# Experimental: CB3.1 reduced the size of the tumors while DMSO-treated tumors continued to grow. Animals were castrated 7 days before 1st injection and tumor volume was set to 100%. Injections were made every 3 days at a dose of 30 mg/kg body weight every 3 days. B. Photograph is of a representative harvested LNCaP xenograft treated with CB3.1. The black bar represents 10 mm.
# Six to eight-week old male athymic SCID mice were inoculated subcutaneously in the flank region via a 27-gauge needle with a 150 μl suspension of LNCaP or PC3 human prostate cancer cells (1×10^6 cells). The inoculations took place while the animal was under isofluorane anaesthesia. The tumor take rate is approximately 75%. Mice bearing tumors of 100 mm^3 were randomly assigned to treatment groups. Castration was performed as described below. Tumor volume (formula: L×W×H×0.5236) was measured in mice bearing LNCaP subcutaneous tumors that became palpable or visible and at least 40 mm^3. The animals were monitored daily and tumors were measured every 5 days.
# Androgen withdrawal was completed by castration. Under isoflurane anaesthesia, a 5 mm vertical incision was used to gently withdraw the epididymal fat pad, to which the testis were attached, and to remove the testis from body. The cord connecting the testis to the blood supply was ligated with a suture, then cut. The cord was then returned to the abdominal cavity. Surgical suture was used to close the incision. To relieve pain, buprenorphine (0.05 mg/kg) was injected prior to surgery.
# The subcutaneous xenograft model was used to test whether sintokamides that inhibit activation of the androgen receptor in vitro have any effect on these tumors. CB3.1 was tested in vivo using the LNCaP subcutaneous xenograft model. […] LNCaP human prostate cancer cells express endogenous androgen receptor (AR) and prostate-specific antigen (PSA), and progress to androgen independence in castrated hosts. LNCaP cells (10^6/ml) were implanted subcutaneously into NOD-SCID male mice that were at least 8 weeks in age. […]
smiles,measurement,setting,value
"CCC(=O)N[C@H](C[C@H](C)C(Cl)(Cl)Cl)C(=O)N1C(=O)C=C(OC)[C@@H]1C[C@H](C)C(Cl)Cl [CB3.1, Sintokamide A]",GRE-luciferase activity in response to ligand,[1],did not inhibit
same,tumor volume relative to the tumor volume on the day of the 1st injection,"LNCaP xenografts; 15 days after first injection, castrated mice",111.81%±38.12
same,serum PSA,LNCaP xenografts; day 15 after the 1st injection,98.47%±170.51
same,effect on tumor volume,LNCaP xenografts; castrated mice,showed a reduction of tumor volume
